The values below come from patent US20220135526A1, “QUATERNARY AMMONIUM SALT COMPOUND, PREPARATION METHOD THEREFOR AND USE THEREOF” (WEST CHINA HOSPITAL, SICHUAN UNIVERSITY, priority 2019, published 2022).

The subject of assay [1] is back skin of SD rat. Put plainly: Local anesthetic effect by subcutaneous infiltration (back skin, Von Frey fiber 100 g). Type of assay: in vivo. The note with it: SD rats, 0.5 mL subcutaneous in saline; compounds 6 mmol/L, controls 0.75% (22 mmol/L) and 2% (74 mmol/L). Here is the method:
After the back of SD rat weighing 250-300 g (half female and half male) was shaved and disinfected, a circle with a diameter of about 1.5 cm was drawn on the side of the exposed back, and the circle is divided into 6 equal parts. […] Among the Von Frey fiber yarns, the one with a strength of 100 g was bound to the needle for local skin stimulation. One minute After the drug was injected, the above method was used to stimulate in 6 divisions. […] If back skin contraction was observed, the local anesthetic effect was considered as loss. […] Each compound was tested with 10 rats.

For assay [2], the system named is rat's sciatic nerve. Put plainly: Local anesthetic effect after injection near the rat sciatic nerve (von Frey stimulation; Postural Extensor Thrust for motor function). The note with it: SD rats, 0.5 mL near sciatic nerve, compounds 20 mmol/mL; for Duration of motor block: Postural Extensor Thrust; for Duration of motor block / Duration of sensory block: levobupivacaine 0.75%, lidocaine 2%; for Local anesthesia onset time: levobupivacaine 0.75% (22 mmol/L), lidocaine 2% (74 mmol/L); for Duration of sensory block: von Frey. Type of assay: in vivo. How it is done: Dosage: for lidocaine group, lidocaine was formulated with distilled water into a solution at the concentration of 2% (74 mmol/L); for levobupivacaine group, levobupivacaine was formulated with distilled water into a solution at the concentration of 0.75% (22 mmol/L); the compound of the present invention was formulated with distilled water into a solution at the concentration of […].
The injection volume for each rat was 0.5 mL, which was guided by a nerve locator and injected near the rat's sciatic nerve. Using von Frey stimulator, the rats were stimulated the soles of the feet in the injected side, to observe the effect of local anesthesia. Meanwhile, Postural Extensor Thrust (PET) was used to evaluate the motor function of the rat: the rat was lifted vertically and the hindlimb in the injected side pedaled on the platform of the electronic balance. […] When the limb was completely paralyzed, the reading was the limb's own weight, about 20 g. If the measured value was more than half of the difference between the baseline and the limb weight, the motor function was regarded as recovery, and if the value was […], the motor function was regarded as loss.

Take `CCCCC[N+](CCCCCCN1CCCCC1C(=O)Nc1c(C)cccc1C)(CCOCC)CC(=O)Nc1c(C)cccc1C` (centres unmarked) [Example 20 product]: in assay [1], the “Duration of local anesthesia (median)” value worked out at 47 h and the “Local anesthesia onset time (median)” value worked out at 3 min. In assay [2], the “Duration of motor block” value turned out to be 14 h, the “Local anesthesia onset time” value was determined as 5 min and the “Duration of sensory block” value is 54 h.
For `CCCCC[N+](CCCCCCCN1CCCCCC1C(=O)Nc1c(C)cccc1C)(CCOCC)CC(=O)Nc1c(C)cccc1C` (centres unmarked) [Example 70 product] the same measures were 75 h, 4 min, 17 h, 2 min and 53 h.
In the same order, the values of `Cc1cccc(C)c1NC(=O)C[N+](CCO)(CCO)CCCCCCN1CCCCC1C(=O)Nc1c(C)cccc1C` (centres unmarked) [Example 17 product] are 56 h, 2 min, 18 h, 5 min and 37 h.
As for `Cc1cccc(C)c1NC(=O)C[N+](CCCCO)(CCCCO)CCCCCCCCN1CCCCCCC1C(=O)Nc1c(C)cccc1C` (centres unmarked) [Example 44 product], in assay [1], the “Duration of local anesthesia (median)” value turned out to be 51 h and the “Local anesthesia onset time (median)” value is reported as 2 min. For the same compound, in assay [2], the “Duration of motor block” value worked out at 16 h, the “Local anesthesia onset time” value was 5 min and the “Duration of sensory block” value worked out at 69 h.
In the case of `CCCCC[N+](CCCCS)(CCCCCCCN1CCCCCC1C(=O)Nc1c(C)cccc1C)CC(=O)Nc1c(C)cccc1C` (centres unmarked) [Example 69 product], in assay [1], the “Duration of local anesthesia (median)” value was determined as 80 h and the “Local anesthesia onset time (median)” value is reported as 1 min. Further, in assay [2], the “Duration of motor block” value was determined as 10 h, the “Local anesthesia onset time” value amounted to 1 min and the “Duration of sensory block” value was 62 h.
In the case of `Cc1cccc(C)c1NC(=O)C[N+](CCCCO)(CCCCO)CCCCCCN1CCC1C(=O)Nc1c(C)cccc1C` (centres unmarked) [Example 66 product], in assay [1], the “Duration of local anesthesia (median)” value was 87 h and the “Local anesthesia onset time (median)” value is 1 min. In assay [2], the “Duration of motor block” value came to 10 h, the “Local anesthesia onset time” value is listed as 1 min and the “Duration of sensory block” value is listed as 60 h.
As to `CCCCC[N+](CCCCO)(CCCCCCN1CCC1C(=O)Nc1c(C)cccc1C)CC(=O)Nc1c(C)cccc1C` (centres unmarked) [Example 64 product], in assay [1], the “Duration of local anesthesia (median)” value is 69 h and the “Local anesthesia onset time (median)” value worked out at 1 min. For the same compound, in assay [2], the “Duration of motor block” value was 13 h, the “Local anesthesia onset time” value was 3 min and the “Duration of sensory block” value was determined as 67 h.
In the same order, the values of `Cc1cccc(C)c1NC(=O)C[N+](CCCO)(CCCCO)CCCCCCN1CCCCC1C(=O)Nc1c(C)cccc1C.[Br-]` (centres unmarked) [Example 18 product] are 49 h, 1 min, 16 h, 2 min and 38 h.
In the same order, the values of `CCCCCCC[N+](CCCCC)(CCOCCN1CCCCC1C(=O)Nc1c(C)cccc1C)CC(=O)Nc1c(C)cccc1C` (centres unmarked) [Example 76 product] are 64 h, 2 min, 14 h, 3 min and 59 h.
For `CCCCCCCCCC[N+](CCCCCCCCCC)(CCOCCN1CCCCC1C(=O)Nc1c(C)cccc1C)CC(=O)Nc1c(C)cccc1C` (centres unmarked) [Example 2 product] the same measures were 44 h, 2 min, 33 h, 4 min and 44 h.
Regarding `CCCCC[N+](CCCS)(CCCCCCCCN1CCCCCCC1C(=O)Nc1c(C)cccc1C)CC(=O)Nc1c(C)cccc1C` (centres unmarked) [Example 57 product], in assay [1], the “Duration of local anesthesia (median)” value is 85 h and the “Local anesthesia onset time (median)” value is 1 min. In assay [2], the “Duration of motor block” value was found to be 13 h, the “Local anesthesia onset time” value came out at 5 min and the “Duration of sensory block” value is reported as 69 h.
For `Cc1cccc(C)c1NC(=O)C[N+]1(CCCCCCN2CCCCC2C(=O)Nc2c(C)cccc2C)CCOC(C)C1` (centres unmarked) [Example 54 product] the same measures were 69 h, 2 min, 15 h, 5 min and 66 h.
For `COCC[N+](CCCCCCN1CCCCC1C(=O)Nc1c(C)cccc1C)(CCOC)CC(=O)Nc1c(C)cccc1C.[Br-]` (centres unmarked) [Example 21 product] the same measures were 64 h, 1 min, 13 h, 5 min and 47 h.
In the same order, the values of `Cc1cccc(C)c1NC(=O)C[N+]1(CCCCN2CCCCC2C(=O)Nc2c(C)cccc2C)CCOCC1C` (centres unmarked) [Example 49 product] are 62 h, 1 min, 20 h, 4 min and 45 h.
For `CCCCCC[N+](CCCCCC)(CCOCCOCCN1CCCCC1C(=O)Nc1c(C)cc(O)cc1C)CC(=O)Nc1c(C)cc(OC)cc1C` (centres unmarked) [Example 4 product], in assay [1], the “Duration of local anesthesia (median)” value stood at 35 h and the “Local anesthesia onset time (median)” value was determined as 1 min. Further, in assay [2], the “Duration of motor block” value is listed as 13 h, the “Local anesthesia onset time” value worked out at 7 min and the “Duration of sensory block” value is given as 23 h.
Consider `COCC[N+](CCCCO)(CCCCCCN1CCCCC1C(=O)Nc1c(C)cccc1C)CC(=O)Nc1c(C)cccc1C` (centres unmarked) [Example 36 product], for which, in assay [1], the “Duration of local anesthesia (median)” value came out at 81 h and the “Local anesthesia onset time (median)” value was 1 min. Moreover, in assay [2], the “Duration of motor block” value is given as 21 h, the “Local anesthesia onset time” value amounted to 5 min and the “Duration of sensory block” value was determined as 52 h.
In the same order, the values of `CCCCCC[N+](CCCCCC)(CCCN1CCCCC1C(=O)Nc1c(C)cccc1C)CC(=O)Nc1c(C)cccc1C` (centres unmarked) [Example 73 product] are 59 h, 2 min, 20 h, 3 min and 51 h.
For `CCCCC[N+](CCCCCCN1CCCCC1C(=O)Nc1c(C)cccc1C)(CCCOC)CC(=O)Nc1c(C)cccc1C.[Br-]` (centres unmarked) [Example 23 product] the same measures were 83 h, 2 min, 14 h, 5 min and 54 h.
In the case of `CCOCC[N+](CCCCO)(CCCCCCN1CCCCC1C(=O)Nc1c(C)cccc1C)CC(=O)Nc1c(C)cccc1C` (centres unmarked) [Example 35 product], in assay [1], the “Duration of local anesthesia (median)” value stood at 92 h and the “Local anesthesia onset time (median)” value is 2 min. Also, in assay [2], the “Duration of motor block” value turned out to be 13 h, the “Local anesthesia onset time” value was determined as 2 min and the “Duration of sensory block” value was 54 h.
Turning to `CCCCC[N+](CCCCO)(CCCCCCCN1CCCCCC1C(=O)Nc1c(C)cccc1C)CC(=O)Nc1c(C)cccc1C` (centres unmarked) [Example 26 product], in assay [1], the “Duration of local anesthesia (median)” value came out at 92 h and the “Local anesthesia onset time (median)” value is listed as 3 min. For the same compound, in assay [2], the “Duration of motor block” value is reported as 16 h, the “Local anesthesia onset time” value is given as 5 min and the “Duration of sensory block” value is on record as 45 h.
For `CCOCCC[N+](CCCCCCN1CCCCC1C(=O)Nc1c(C)cccc1C)(CCCOCC)CC(=O)Nc1c(C)cccc1C.[Br-]` (centres unmarked) [Example 22 product] the same measures were 63 h, 2 min, 15 h, 3 min and 47 h.
On to `CCOCC[N+](CCCCCCN1CCC1C(=O)Nc1c(C)cccc1C)(CCOCC)CC(=O)Nc1c(C)cccc1C` (centres unmarked) [Example 67 product], for which, in assay [1], the “Duration of local anesthesia (median)” value is 58 h and the “Local anesthesia onset time (median)” value is 1 min. For the same compound, in assay [2], the “Duration of motor block” value is recorded as 14 h, the “Local anesthesia onset time” value is listed as 1 min and the “Duration of sensory block” value was found to be 67 h.
